From article PMC6691587, “New CXCR1/CXCR2 inhibitors represent an effective treatment for kidney or head and neck cancers sensitive or refractory to reference treatments” (Theranostics, 2019) come the findings set out here.

The structures appear in SMILES notation. pIC50: −log10 of the molar value.

What all share (format): cell-based, human
One experiment relates to CAL27. Put plainly: XTT cell viability assay, CAL27 HNSCC cells. The note with it: Homo sapiens, CAL-27; XTT assay, 48 h; SD 10%; mean of three experiments; read-out: IC50 27 (HNSCC). On the procedure:
(§1) Fifty microliters of sodium 3′-[1-phenylaminocarbonyl)-3,4-tetrazolium]-bis(4-methoxy-6-nitro) benzene sulfonic acid hydrate (XTT) reagent was added to each well. The assay is based on the cleavage of the yellow tetrazolium salt XTT to form an orange formazan dye by metabolically active cells. This bio-reduction occurs in viable cells only and is related to NAD(P)H production through glycolysis. Therefore, the amount of formazan dye measured at 490 nm directly correlated with the number of metabolically active cells reflecting cell proliferation and viability. Each assay was performed in quadruplicate.

For a further experiment, the system named is CAL33. The experiment in a line: XTT cell viability assay, CAL33 HNSCC cells. The note with it: Homo sapiens, CAL-33; XTT assay, 48 h; SD 10%; mean of three experiments; read-out: IC50 33 (HNSCC). The procedure:
as §1

For a further experiment, the system named is A498. Put plainly: XTT cell viability assay, A498 RCC cells. Conditions: Homo sapiens, A498; XTT assay, 48 h; SD 10%; mean of three experiments; read-out: IC50 498 (Kidney RCC). On the procedure: as §1
For a further experiment, the system named is RCC4. Put plainly: XTT cell viability assay, RCC4 RCC cells. The note with it: Homo sapiens, RCC4, 48 h, SD 10%, mean of three experiments, read-out: IC50 R4 (Kidney RCC). On the procedure: as §1
Another experiment has as its system 786-O. The experiment in a line: XTT cell viability assay, 786-O RCC cells. The note with it: Homo sapiens, 786-0; XTT assay, 48 h; SD 10%; mean of three experiments; read-out: IC50 786 (Kidney RCC). On the procedure:
as §1

The subject of the next experiment is MDA-MD-231. Put plainly: XTT cell viability assay, breast cancer cells. Conditions: Homo sapiens, 48 h, SD 10%, mean of three experiments. The procedure: as §1
In a further experiment the test system is OCI-AML2. The experiment in a line: XTT cell viability assay, OCI-AML2 AML cells. Conditions: Homo sapiens, OCI-AML2, 48 h, SD 10%, mean of three experiments, read-out: IC50 L2 (AML). The procedure: as §1
For the next experiment, the system named is OCI-AML3. The experiment in a line: XTT cell viability assay, OCI-AML3 AML cells. The note with it: Homo sapiens, OCI-AML-3, 48 h, SD 10%, mean of three experiments, read-out: IC50 L3 (AML). On the procedure:
as §1

The subject of the next experiment is Molm13. The experiment in a line: XTT cell viability assay, Molm13 AML cells. The note with it: Homo sapiens, MOLM-13, 48 h, SD 10%, mean of three experiments. The procedure:
as §1

Another experiment has as its system Molm14. The experiment in a line: XTT cell viability assay, Molm14 AML cells. Conditions: Homo sapiens, MOLM-14, 48 h, SD 10%, mean of three experiments. On the procedure:
as §1

The next experiment has as its system SKM1. Put plainly: XTT cell viability assay, SKM1 MDS cells. The note with it: Homo sapiens, SKM-1, 48 h, SD 10%, mean of three experiments, read-out: IC50 SK (MDS). The procedure: as §1
The subject of a further experiment is K562. The experiment in a line: XTT cell viability assay, K562 CML cells. Conditions: Homo sapiens, K562, 48 h, SD 10%, mean of three experiments. On the procedure: as §1

Take `O=C(Nc1cccc(Cl)c1)Nc1nc2ccccc2s1` [C22]: the pIC50 in the experiment with CAL27 is below 4.60; in the experiment with CAL33, below 4.60; in the experiment with A498, below 4.60; with RCC4, 4.70; in the experiment with 786-O, below 4.60; in the experiment with MDA-MD-231, below 4.60. Moreover, the pIC50 with OCI-AML2 was below 4.60; in the experiment with OCI-AML3, below 4.60; in the experiment on Molm13, below 4.60; in the experiment on Molm14 it was below 4.60; in the experiment on SKM1, below 4.60; in the experiment on K562, 4.60.
For `O=C(Nc1ccc(Cl)cc1)Nc1nc2ccccc2s1` [C23], the pIC50 in the experiment on CAL27 is below 4.60; in the experiment on CAL33 it was below 4.60; in the experiment with A498, 4.60; in the experiment with RCC4, 4.70; in the experiment with 786-O, below 4.60; in the experiment with MDA-MD-231, below 4.60. The pIC50 was below 4.60 with OCI-AML2; below 4.60 with OCI-AML3; below 4.60 in the experiment on Molm13; below 4.60 with Molm14; below 4.60 in the experiment on SKM1; 4.60 in the experiment on K562.
With `COc1ccc(NC(=O)Nc2nc3ccccc3s2)cc1` [C24], the pIC50 is below 4.60 in the experiment with CAL27; below 4.60 in the experiment on CAL33; below 4.60 in the experiment with A498; 4.82 in the experiment on RCC4; below 4.60 in the experiment on 786-O; below 4.60 with MDA-MD-231. Besides, the pIC50 with OCI-AML2 is below 4.60; with OCI-AML3 it was below 4.60; in the experiment on Molm13, below 4.60; in the experiment on Molm14, below 4.60; in the experiment on SKM1, below 4.60; with K562 it was 4.60.
For `Cc1ccc2nc(NC(=O)Nc3cccc(Cl)c3)sc2c1` [C26], the pIC50 with CAL27, in the experiment with CAL33, in the experiment with A498, with RCC4, with 786-O and with MDA-MD-231 was below 4.60 in each case. Besides, the pIC50 with OCI-AML2, in the experiment with OCI-AML3, in the experiment on Molm13, with Molm14, in the experiment on SKM1 and in the experiment with K562 was below 4.60 throughout.
For the molecule `Cc1cccc(NC(=O)Nc2nc3ccc(C)cc3s2)c1` [C27], the pIC50 in the experiment with CAL27, in the experiment on CAL33, in the experiment with A498, with RCC4, in the experiment on 786-O and in the experiment with MDA-MD-231 was below 4.60 throughout. Moreover, the negative-log IC50 (pIC50) with OCI-AML2, in the experiment on OCI-AML3, in the experiment on Molm13, in the experiment on Molm14, with SKM1 and in the experiment on K562 was below 4.60 throughout.
Regarding `CCOc1ccc2nc(NC(=O)Nc3cccc(C)c3)sc2c1` [C31], the pIC50 in the experiment on CAL27, in the experiment with CAL33, in the experiment with A498, with RCC4, in the experiment with 786-O and with MDA-MD-231 was below 4.60 in each case. Also, the pIC50 with OCI-AML2 was 4.60; in the experiment with OCI-AML3 it was below 4.60; with Molm13 it was below 4.60; in the experiment with Molm14 it was 4.60; in the experiment on SKM1, below 4.60; in the experiment with K562, 4.60.
Consider `CCOc1ccc2nc(NC(=O)Nc3ccc(C)cc3)sc2c1` [C32], for which the pIC50 with CAL27, with CAL33, in the experiment with A498, in the experiment with RCC4, with 786-O and in the experiment on MDA-MD-231 was below 4.60 each time. In addition, the pIC50 in the experiment with OCI-AML2, in the experiment on OCI-AML3, in the experiment with Molm13, in the experiment on Molm14, with SKM1 and with K562 was below 4.60 in each case.
